{
  "source": "patent US20220160693A1",
  "about": "“PHARMACEUTICAL COMPOSITION OF PROLYL HYDROXYLASE INHIBITOR AND PREPARATION METHOD THEREFOR” (Jiangsu Hengrui Medicine Co., Ltd., priority 2019, published 2022)",
  "origin": "cited, not measured here",
  "test_system": "prolyl hydroxylase",
  "data": [
    {"smiles": "O=C(O)CNC(=O)c1ncc(C#CCOc2ccc(Cl)cc2)cc1O", "note": "[compound of formula (I), 2-(3-hydroxy-5-(3-p-chlorophenoxypropyn-1-yl))picolinamido acetic acid]", "values": [
      {"measurement": "Inhibition effect on prolyl hydroxylase (in words)", "result": "excellent inhibition effect"}
    ]}
  ]
}
